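96-well plates; 48 h exposure; 5 concentrations. Endpoints by linear interpolation between flanking doses. Not reached: highest tested concentration assigned. GI50 = concentration required for 50% inhibition of growth.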 Activity calls are given as the source filed them. Cut-off read from the data, not from the text of the source: active = GI50 up to about 1.1 µM and inactive = higher.
Tests used:
Assay in all cases: inhibition of tumour cell growth, NCI panel, 48 h
[1] = tested on: HCT-116
[2] = tested on: K562
[3] = tested on: SN12C
[4] = tested on: UACC-62
[5] = tested on: SF-295
[6] = tested on: HCC 2998
[7] = tested on: NCI-H23
[8] = tested on: UACC-257
[9] = tested on: SNB-75
[10] = tested on: DLD-1
[11] = tested on: SF-539
[12] = tested on: SK-MEL-28
[13] = tested on: EKVX
[14] = tested on: 786-0
[15] = tested on: MOLT-4
[16] = tested on: COLO 205
[17] = tested on: KM12
[18] = tested on: UO-31
[19] = tested on: Hs-578T
[20] = tested on: MCF7

Cc1cc2c(c(C(N)=O)c1C)-c1ccccc1C2=O
GI50 [1]: > 100 µM (inactive) | GI50 [2]: > 100 µM (inactive) | GI50 [3]: > 100 µM (inactive) | GI50 [4]: > 100 µM (inactive) | GI50 [5]: > 100 µM (inactive) | GI50 [6]: > 100 µM (inactive) | GI50 [7]: > 100 µM (inactive) | GI50 [8]: > 100 µM (inactive) | GI50 [9]: 83.2 µM (inactive) | GI50 [10]: > 100 µM (inactive) | GI50 [11]: > 100 µM (inactive) | GI50 [12]: > 100 µM (inactive) | GI50 [13]: > 100 µM (inactive) | GI50 [14]: > 100 µM (inactive) | GI50 [15]: > 100 µM (inactive) | GI50 [16]: > 100 µM (inactive) | GI50 [17]: 2.42 µM (inactive) | GI50 [18]: > 100 µM (inactive)

COC(=O)C(=O)C(C(=O)OC)C(=O)C(=O)Nc1c(C)cccc1C (configuration not stated)
GI50 [1]: > 100 µM (inactive) | GI50 [2]: > 100 µM (inactive) | GI50 [3]: > 100 µM (inactive) | GI50 [4]: > 100 µM (inactive) | GI50 [5]: > 100 µM (inactive) | GI50 [6]: > 100 µM (inactive) | GI50 [7]: > 100 µM (inactive) | GI50 [8]: > 100 µM (inactive) | GI50 [9]: > 100 µM (inactive) | GI50 [10]: > 100 µM (inactive) | GI50 [11]: > 100 µM (inactive) | GI50 [12]: > 100 µM (inactive) | GI50 [13]: > 100 µM (inactive) | GI50 [14]: > 100 µM (inactive) | GI50 [15]: > 100 µM (inactive) | GI50 [16]: > 100 µM (inactive) | GI50 [17]: > 100 µM (inactive) | GI50 [18]: > 100 µM (inactive)

CCN(CC)CCNc1c2ccccc2nc2cccc([N+](=O)[O-])c12
GI50 [1]: 0.00676 µM (active) | GI50 [2]: 0.0157 µM (active) | GI50 [3]: 0.0124 µM (active) | GI50 [4]: 0.0143 µM (active) | GI50 [5]: 0.00912 µM (active) | GI50 [6]: 0.0151 µM (active) | GI50 [7]: 0.00787 µM (active) | GI50 [8]: 0.0255 µM (active) | GI50 [9]: 0.0176 µM (active) | GI50 [10]: 0.0225 µM (active) | GI50 [11]: 0.0224 µM (active) | GI50 [19]: 0.017 µM (active) | GI50 [12]: 0.04 µM (active) | GI50 [13]: 0.0177 µM (active) | GI50 [14]: 0.0136 µM (active) | GI50 [20]: 0.00135 µM (active) | GI50 [15]: 0.0117 µM (active) | GI50 [16]: 0.00461 µM (active) | GI50 [17]: 0.0352 µM (active) | GI50 [18]: 0.0198 µM (active)

COc1ccc(OCC(=O)O)c(C(=O)CCC(=O)O)c1
GI50 [1]: > 100 µM (inactive) | GI50 [2]: > 100 µM (inactive) | GI50 [3]: > 100 µM (inactive) | GI50 [4]: > 10 µM (inactive) | GI50 [5]: > 100 µM (inactive) | GI50 [6]: > 100 µM (inactive) | GI50 [7]: > 100 µM (inactive) | GI50 [8]: > 100 µM (inactive) | GI50 [9]: 71.8 µM (inactive) | GI50 [10]: > 100 µM (inactive) | GI50 [11]: > 100 µM (inactive) | GI50 [12]: > 100 µM (inactive) | GI50 [13]: > 100 µM (inactive) | GI50 [14]: > 100 µM (inactive) | GI50 [15]: > 100 µM (inactive) | GI50 [16]: > 100 µM (inactive) | GI50 [17]: > 100 µM (inactive) | GI50 [18]: > 100 µM (inactive)

O=C(CNc1ccc2c(=S)c3ccccc3[nH]c2c1)Nc1ccccc1-c1ccccc1NC(=O)CNc1ccc2c(=S)c3ccccc3[nH]c2c1
GI50 [1]: 18.5 µM (inactive) | GI50 [2]: 2.85 µM (inactive) | GI50 [3]: 22.2 µM (inactive) | GI50 [4]: 18.2 µM (inactive) | GI50 [5]: 21.2 µM (inactive) | GI50 [6]: 15.1 µM (inactive) | GI50 [7]: 13.8 µM (inactive) | GI50 [8]: 21 µM (inactive) | GI50 [9]: 26.5 µM (inactive) | GI50 [10]: 11 µM (inactive) | GI50 [11]: 24.7 µM (inactive) | GI50 [19]: 29.2 µM (inactive) | GI50 [12]: 21.9 µM (inactive) | GI50 [13]: 24.4 µM (inactive) | GI50 [14]: 13.1 µM (inactive) | GI50 [20]: 16.4 µM (inactive) | GI50 [15]: 3.96 µM (inactive) | GI50 [16]: 11.9 µM (inactive) | GI50 [17]: 18.5 µM (inactive) | GI50 [18]: 15.3 µM (inactive)

CC(=O)Oc1ccc(C(c2ccc(OC(C)=O)cc2)c2ccccn2)cc1 [BISACODYL]
GI50 [1]: 70.6 µM (inactive) | GI50 [2]: 59.4 µM (inactive) | GI50 [3]: 7.16 µM (inactive) | GI50 [4]: 47.5 µM (inactive) | GI50 [5]: 64.3 µM (inactive) | GI50 [6]: 2.9 µM (inactive) | GI50 [7]: 3.83 µM (inactive) | GI50 [8]: > 87.3 µM (inactive) | GI50 [9]: 28.5 µM (inactive) | GI50 [10]: 7.11 µM (inactive) | GI50 [11]: > 91.2 µM (inactive) | GI50 [19]: 0.232 µM (active) | GI50 [12]: > 100 µM (inactive) | GI50 [13]: 18.8 µM (inactive) | GI50 [14]: > 91.6 µM (inactive) | GI50 [20]: 0.378 µM (active) | GI50 [15]: 57 µM (inactive) | GI50 [16]: 0.406 µM (active) | GI50 [17]: 70.3 µM (inactive) | GI50 [18]: 69.7 µM (inactive)

NCCCC(N)(C(=O)O)C(F)F (configuration not stated) [EFLORNITHINE]
GI50 [1]: 815 µM (inactive) | GI50 [2]: > 2880 µM (inactive) | GI50 [3]: > 1980 µM (inactive) | GI50 [4]: > 5000 µM (inactive) | GI50 [5]: 2270 µM (inactive) | GI50 [6]: > 5000 µM (inactive) | GI50 [7]: > 5000 µM (inactive) | GI50 [8]: > 5000 µM (inactive) | GI50 [9]: 2340 µM (inactive) | GI50 [10]: > 3160 µM (inactive) | GI50 [11]: > 5000 µM (inactive) | GI50 [12]: > 5000 µM (inactive) | GI50 [14]: > 100 µM (inactive) | GI50 [20]: > 5000 µM (inactive) | GI50 [15]: 3030 µM (inactive) | GI50 [16]: > 5000 µM (inactive) | GI50 [17]: > 5000 µM (inactive) | GI50 [18]: > 5000 µM (inactive)
